Entries after “also recorded” stand apart in the source; their conditions may differ.
Test system: gastric lesions produced by the ethanol/HCl mixture
Test: ethanol/HCl mixture-induced gastric lesion test in rats
Format: in vivo, Male Sprague Dawley rats
Conditions: oral gavage 30 min before 60% ethanol in 150 mM HCl, lesions scored 60 min after
Protocol: The ethanol/HCl mixture-induced gastric lesion test in rats described by Takeuchi et al, J. Pharmacol. Exp. Ther., 286: 115-121 (1998), was used to evaluate the gastric lesion activity. Male Sprague Dawley rats (Charles River Laboratories, Wilmington, Mass.) weighing 230-250 g were used for the experiments. The rats were housed with laboratory chow and water ad libitum prior to the study. The rats were fasted for 24 hours with free access to water and then dosed by oral gavage with vehicle or with the test compounds given at a volume of 0.5 ml/100 g body weight. Thirty minutes after oral dosing all the rats received 1 ml of a solution of 60% ethanol in 150 mM HCl intragastrically. Food was withheld after dosing. Sixty minutes after ethanol/HCl, rats were euthanized by pre-charged CO2. The stomachs were dissected along the greater curvature, washed with a directed stream of 0.9% saline and pinned open on a sylgard based petri dish for examination of the hemorrhagic lesions. Gastric lesion score was expressed in mm and calculated by summing the length of each lesion as described by Al-Ghamdi et al, J. Int. Med. Res., 19: 2242 (1991). Results are expressed as the mean±standard error of the mean. Statistical analysis were conducted using ANOVA test followed by a Student-Newman-Keuls post-hoc test using the Abacus Concepts, Super Anova computer program (Abacus Concepts, Inc., Berkeley, Calif.).

Compound | inhibition of the formation of gastric lesions (gastric lesion score) relative to vehicle alone (160 μmol/kg) | inhibition of the formation of gastric lesions (gastric lesion score) relative to vehicle alone (320 μmol/kg)
CNC(=NCCSCc1ncn(C(=O)CC2(SN=O)C3CC4CC(C3)CC2C4)c1C)NC#N (stereo not shown) [Example 1, (2Z)-2-aza-3-(methylamino)-3-((2-((5-methyl-1-(2-(2-(nitrosothio)adamantan-2-yl)acetyl)imidazol-4-yl)methylthio)ethyl)amino)prop-2-enenitrile] | significantly inhibited the formation of gastric lesions | significantly inhibited the formation of gastric lesions
CN/C(=N/CCSCc1nc[nH]c1C)NC#N [Cimetidine, reference compound] | failed to significantly inhibit the formation of gastric lesions; also recorded: did not significantly inhibit the formation of gastric lesions | failed to significantly inhibit the formation of gastric lesions; also recorded: did not significantly inhibit the formation of gastric lesions

— patent publication US7256205B2, “Nitrosated and nitrosylated H2 receptor antagonist compounds, compositions and methods of use” (NitroMed, Inc., priority 1998, dated 2007)
